# From ChEMBL document CHEMBL1130625, “Synthesis and antibacterial activity of novel 7-(3-substituted-3 or 4-trifluoromethyl-1-pyrrolidinyl)-8-methoxyfluoroquinolones” (1998)
# Key:
# Citrobacter freundii [1] = assay: Compound was tested for antibacterial activity against gram negative Citrobacter freundii KP-29; type: functional
# Staphylococcus aureus [2] = assay: Compound was tested for antibacterial activity against gram positive Staphylococcus aureus FDA 209P JC-1; type: functional
# Enterobacter cloacae = assay: Compound was tested for antibacterial activity against gram negative Enterobacter cloacae Nek39; type: functional
# Proteus vulgaris [3] = assay: Compound was tested for antibacterial activity against gram negative Proteus vulgaris No.33; type: functional
# Enterococcus faecalis = assay: Compound was tested for antibacterial activity against gram positive Enterococcus faecalis 1373; type: functional
# Pseudomonas aeruginosa [4] = assay: Compound was tested for antibacterial activity against gram negative Pseudomonas aeruginosa K-13; type: functional
# Klebsiella pneumoniae [5] = assay: Compound was tested for antibacterial activity against gram negative Klebsiella pneumoniae KC-1; type: functional
# Staphylococcus aureus [6] = assay: Compound was tested for antibacterial activity against gram positive Staphylococcus aureus KP-90-3; type: functional
# Proteus vulgaris [7] = assay: Compound was tested for antibacterial activity against gram negative Proteus vulgaris KS-134; type: functional
# Streptococcus pyogenes = assay: Compound was tested for antibacterial activity against gram positive Streptococcus pyogenes cook
# Burkholderia cepacia = assay: Compound was tested for antibacterial activity against gram negative Burkholderia cepacia 23; type: functional
# Citrobacter freundii [8] = assay: Compound was tested for antibacterial activity against gram negative Citrobacter freundii No.7; type: functional
# Staphylococcus aureus [9] = assay: Compound was tested for antibacterial activity against gram positive Staphylococcus aureus JS-1; type: functional
# Staphylococcus aureus [10] = assay: Compound was tested for antibacterial activity against gram positive Staphylococcus aureus smith; type: functional
# Escherichia coli [11] = assay: Compound was tested for antibacterial activity against gram negative Escherichia coli CSH2/RE45; type: functional
# Pseudomonas aeruginosa [12] = assay: Compound was tested for antibacterial activity against gram negative Pseudomonas aeruginosa PAO1; type: functional
# Escherichia coli [13] = assay: Compound was tested for antibacterial activity against gram negative Escherichia coli ML4707; type: functional
# Klebsiella pneumoniae [14] = assay: Compound was tested for antibacterial activity against gram negative Klebsiella pneumoniae No.42; type: functional
# Proteus mirabilis = assay: Compound was tested for antibacterial activity against gram negative Proteus mirabilis JY-10; type: functional
# Escherichia coli [15] = assay: Compound was tested for antibacterial activity against gram negative Escherichia coli CSH2/RK1; type: functional
# Pseudomonas aeruginosa [16] = assay: Compound was tested for antibacterial activity against gram negative Pseudomonas aeruginosa KP-254; type: functional
# Klebsiella oxytoca = assay: Compound was tested for antibacterial activity against gram negative Klebsiella oxytoca GN 10650; type: functional
# Serratia marcescens = assay: Compound was tested for antibacterial activity against gram negative Serratia marcescens No.16-2; type: functional
# Pseudomonas aeruginosa [17] = assay: Compound was tested for antibacterial activity against gram negative Pseudomonas aeruginosa AK109; type: functional
# Escherichia coli [18] = assay: Compound was tested for antibacterial activity against gram negative Escherichia coli NIHJ JC-2; type: functional
# [19] = test system: Acinetobacter calcoaceticus; assay: Compound was tested for antibacterial activity against gram negative Acinetobacter calcoaceticus No.4; type: functional
# [20] = Citrobacter freundii, read-out: MIC
# [21] = Staphylococcus aureus, read-out: MIC
# [22] = Enterobacter cloacae, read-out: MIC
# [23] = Proteus vulgaris, read-out: MIC
# [24] = Enterococcus faecalis, read-out: MIC
# [25] = Pseudomonas aeruginosa, read-out: MIC
# [26] = Klebsiella pneumoniae, read-out: MIC
# [27] = Streptococcus pyogenes, read-out: MIC
# [28] = Burkholderia cepacia, read-out: MIC
# [29] = Escherichia coli, read-out: MIC
# [30] = Proteus mirabilis, read-out: MIC
# [31] = Klebsiella oxytoca, read-out: MIC
# [32] = Serratia marcescens, read-out: MIC
# [33] = Acinetobacter calcoaceticus, read-out: MIC
structure (smiles),measurement,setting,value
COc1c(N2CC[C@@](CO)(C(F)(F)F)C2)c(F)cc2c(=O)c(C(=O)O)cn(C3CC3)c12,MIC,Citrobacter freundii [1]; [20],> 100 µg/mL
same,MIC,Staphylococcus aureus [2]; [21],0.1 µg/mL
same,MIC,Enterobacter cloacae; [22],6.25 µg/mL
same,MIC,Proteus vulgaris [3]; [23],1.56 µg/mL
same,MIC,Enterococcus faecalis; [24],0.39 µg/mL
same,MIC,Pseudomonas aeruginosa [4]; [25],50 µg/mL
same,MIC,Klebsiella pneumoniae [5]; [26],1.56 µg/mL
same,MIC,Staphylococcus aureus [6]; [21],3.13 µg/mL
same,MIC,Proteus vulgaris [7]; [23],100 µg/mL
same,MIC,Streptococcus pyogenes; [27],0.39 µg/mL
same,MIC,Burkholderia cepacia; [28],3.13 µg/mL
same,MIC,Citrobacter freundii [8]; [20],25 µg/mL
same,MIC,Staphylococcus aureus [9]; [21],0.05 µg/mL
same,MIC,Staphylococcus aureus [10],0.025 µg/mL
same,MIC,Escherichia coli [11]; [29],25 µg/mL
same,MIC,Pseudomonas aeruginosa [12]; [25],12.5 µg/mL
same,MIC,Escherichia coli [13]; [29],0.05 µg/mL
same,MIC,Klebsiella pneumoniae [14]; [26],3.13 µg/mL
same,MIC,Proteus mirabilis; [30],0.39 µg/mL
same,MIC,Escherichia coli [15]; [29],25 µg/mL
same,MIC,Pseudomonas aeruginosa [16]; [25],> 100 µg/mL
same,MIC,Klebsiella oxytoca; [31],3.13 µg/mL
same,MIC,Serratia marcescens; [32],12.5 µg/mL
same,MIC,Pseudomonas aeruginosa [17]; [25],12.5 µg/mL
same,MIC,Escherichia coli [18]; [29],1.56 µg/mL
same,MIC,[19]; [33],1.56 µg/mL
COc1c(N2C[C@H](CO)[C@H](C(F)(F)F)C2)c(F)cc2c(=O)c(C(=O)O)cn(C3CC3)c12,MIC,Citrobacter freundii [1]; [20],> 100 µg/mL
same,MIC,Staphylococcus aureus [2]; [21],0.013 µg/mL
same,MIC,Enterobacter cloacae; [22],1.56 µg/mL
same,MIC,Proteus vulgaris [3]; [23],0.39 µg/mL
same,MIC,Enterococcus faecalis; [24],0.1 µg/mL
same,MIC,Pseudomonas aeruginosa [4]; [25],25 µg/mL
same,MIC,Klebsiella pneumoniae [5]; [26],0.39 µg/mL
same,MIC,Staphylococcus aureus [6]; [21],0.39 µg/mL
same,MIC,Proteus vulgaris [7]; [23],100 µg/mL
same,MIC,Streptococcus pyogenes; [27],0.05 µg/mL
same,MIC,Burkholderia cepacia; [28],1.56 µg/mL
same,MIC,Citrobacter freundii [8]; [20],6.25 µg/mL
same,MIC,Staphylococcus aureus [9]; [21],≤ 0.006 µg/mL
same,MIC,Staphylococcus aureus [10],≤ 0.006 µg/mL
same,MIC,Escherichia coli [11]; [29],3.13 µg/mL
same,MIC,Pseudomonas aeruginosa [12]; [25],3.13 µg/mL
same,MIC,Escherichia coli [13]; [29],0.2 µg/mL
same,MIC,Klebsiella pneumoniae [14]; [26],0.78 µg/mL
same,MIC,Proteus mirabilis; [30],0.1 µg/mL
same,MIC,Escherichia coli [15]; [29],3.13 µg/mL
same,MIC,Pseudomonas aeruginosa [16]; [25],> 100 µg/mL
same,MIC,Klebsiella oxytoca; [31],0.78 µg/mL
same,MIC,Serratia marcescens; [32],3.13 µg/mL
same,MIC,Pseudomonas aeruginosa [17]; [25],3.13 µg/mL
same,MIC,Escherichia coli [18]; [29],0.39 µg/mL
same,MIC,[19]; [33],0.2 µg/mL
COc1c(N2C[C@@H](CN)[C@H](C(F)(F)F)C2)c(F)cc2c(=O)c(C(=O)O)cn(C3CC3)c12.Cl,MIC,Citrobacter freundii [1],12.5 µg/mL
same,MIC,Staphylococcus aureus [2],0.025 µg/mL
same,MIC,Enterobacter cloacae,0.39 µg/mL
same,MIC,Proteus vulgaris [3],0.05 µg/mL
same,MIC,Enterococcus faecalis,0.025 µg/mL
same,MIC,Pseudomonas aeruginosa [4],12.5 µg/mL
same,MIC,Klebsiella pneumoniae [5],0.05 µg/mL
same,MIC,Staphylococcus aureus [6],0.39 µg/mL
same,MIC,Proteus vulgaris [7],50 µg/mL
same,MIC,Streptococcus pyogenes,0.013 µg/mL
same,MIC,Burkholderia cepacia,1.56 µg/mL
same,MIC,Citrobacter freundii [8],0.78 µg/mL
same,MIC,Staphylococcus aureus [9],<0.006 µg/mL
same,MIC,Escherichia coli [11],0.39 µg/mL
same,MIC,Pseudomonas aeruginosa [12],1.56 µg/mL
same,MIC,Escherichia coli [13],0.025 µg/mL
same,MIC,Klebsiella pneumoniae [14],0.1 µg/mL
same,MIC,Proteus mirabilis,0.05 µg/mL
same,MIC,Escherichia coli [15],0.39 µg/mL
same,MIC,Pseudomonas aeruginosa [16],100 µg/mL
same,MIC,Klebsiella oxytoca,0.1 µg/mL
same,MIC,Serratia marcescens,0.39 µg/mL
same,MIC,Pseudomonas aeruginosa [17],1.56 µg/mL
same,MIC,Escherichia coli [18],0.025 µg/mL
same,MIC,[19],0.1 µg/mL
